Converted amounts (≈) assume the structure as drawn.
Columns and labels:
[1] = system: Haemophilus influenzae (Isolate ID ATCC 49247); assay: Antibacterial activity, MIC, H. influenzae; assay type: cell-based; conditions: Gram negative strain, broth microdilution or agar dilution; for MIC: Haemophilus influenzae, ATCC49247
Procedure, shortened: (§1)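 CLSI-guided dilution susceptibility testing (broth or agar) gave the MIC for each strain.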

[2] = system: Streptococcus pyogenes (Isolate ID ATCC 51339); assay: Antibacterial activity, MIC, S. pyogenes; assay type: cell-based; conditions: broth microdilution or agar dilution; for MIC: Streptococcus pyogenes, ATCC51339, Gram positive strain
Procedure, shortened: as §1

[3] = system: Staphylococcus aureus (Isolate ID ATCC 29213); assay: Antibacterial activity, MIC, S. aureus; assay type: cell-based; conditions: broth microdilution or agar dilution; for MIC: Staphylococcus aureus, ATCC29213, Gram positive strain
Procedure, shortened: as §1

[4] = system: Enterococcus faecalis (Isolate ID ATCC 29212); assay: Antibacterial activity, MIC, E. faecalis; assay type: cell-based; conditions: Enterococcus faecalis, ATCC29212; Gram positive strain; broth microdilution or agar dilution
Method: Bacterial Assay: Determination of Antibacterial Activity
Compounds of the invention were tested for antimicrobial activity by susceptibility testing in liquid or on solid media. MICs for compounds against each strain were determined by the broth microdilution or agar dilution method according to the guidelines of the Clinical Laboratories and Standards Institute, formerly the National Committee for Clinical Laboratory Standards (Clinical Laboratories and Standards Institute. Methods for Dilution Antimicrobial Susceptibility Tests for Bacteria That Grow Aerobically; Approved Standard—Seventh Edition. Document M7-A7. CLSI, Wayne, Pa., 2006; Clinical Laboratories and Standards Institute. The gram positive bacterial strains tested include S. aureus (Staphylococcus aureus (Isolate ID ATCC 29213)), E. faecalis (Enterococcus faecalis (Isolate ID ATCC 29212)) and S. pyogenes (Streptococcus pyogenes (Isolate ID ATCC 51339)). The gram negative bacterial strains tested include H. influenzae (Haemophilus influenzae (Isolate ID ATCC 49247))

[5] = physchem; conditions: for Solubility (pH 7.4): 24 h; for solubility at 24 h: kinetic from dmso stock
Procedure, shortened: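 DMSO doubling dilutions were diluted twenty-fold into 100 mM citrate (pH 4), PBS (pH 7.4) or carbonate-bicarbonate (pH 9). After 24 h equilibration at room temperature, absorbance was read at 620 nm. The reported value is the highest concentration without measurable precipitate.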

[6] = pH 7.4, aqueous buffer, Max Solubility
[7] = pH 7.4, aqueous buffer, Solubility Range (maximum solubility)
[8] = pH 7.4, aqueous buffer, Solubility (pH 7.4)
[9] = pH 7.4, aqueous buffer, Solubility Range
[10] = pH 9, aqueous buffer, Max Solubility
[11] = pH 9, aqueous buffer, Solubility Range (maximum solubility)

Row | Compound | MIC [1] [µg/mL] | MIC [2] [µg/mL] | MIC [3] [µg/mL] | solubility at 24 h [5, 6] [µg/mL] | solubility at 24 h [5, 7] [µg/mL] | solubility at 24 h [5, 8] [µg/mL] | solubility at 24 h [5, 9] [µg/mL] | solubility at 24 h [5, 10] [µg/mL] | solubility at 24 h [5, 11] [µg/mL] | also measured
1 | CCNC(=O)Nc1nc2cc(-c3cnc(N4CCC(C)(C(=O)O)CC4)nc3C)cc(-c3ccccn3)c2s1 [Compound 214] | 1 to 16 (≈ 1.88 to 30.1 µM) | 0.25 to 1 (≈ 0.47 to 1.88 µM) | 0.25 to 1 (≈ 0.47 to 1.88 µM) |  |  | 400 (≈ 752 µM) | 400 to 800 (≈ 752 to 1500 µM) | ≥ 800 | > 800 | 
2 | CCNC(=O)Nc1nc2cc(-c3cnc(NC4COC(C)(C(=O)OCC)OC4)nc3)cc(-c3ccccn3)c2s1 (stereo not drawn) [Compound 216] | 1 to 16 (≈ 1.77 to 28.4 µM) | 1 to 16 (≈ 1.77 to 28.4 µM) | ≤ 0.25 |  |  | 25 (≈ 44.4 µM) | 12.5 to 400 (≈ 22.2 to 710 µM) |  |  | solubility at 24 h ([5]; pH 4, aqueous buffer, Max Solubility): 50 µg/mL (≈ 88.7 µM); solubility at 24 h ([5]; pH 4, aqueous buffer, Solubility Range (maximum solubility)): 12.5 to 400 µg/mL (≈ 22.2 to 710 µM)
3 | CCNC(=O)Nc1nc2cc(-c3cnc(N4CCC(C)(C(=O)O)CC4)nc3)cc(-c3ccc(CN4CCC(F)(F)CC4)cn3)c2s1 [Compound 217] | 1 to 16 (≈ 1.54 to 24.6 µM) | 0.25 to 1 (≈ 0.384 to 1.54 µM) | ≤ 0.25 |  |  | 400 (≈ 615 µM) | 400 to 800 (≈ 615 to 1230 µM) | ≥ 800 | > 800 | 
4 | CCNC(=O)Nc1nc2cc(-c3cnc(N(C)C4CCC(C)(C(=O)O)CC4)nc3)cc(-c3ccccn3)c2s1 (stereo not drawn) [Compound 218] | 1 to 16 (≈ 1.83 to 29.3 µM) | ≤ 0.25 | ≤ 0.25 |  |  | 200 (≈ 367 µM) | 12.5 to 400 (≈ 22.9 to 733 µM) | ≥ 800 | > 800 | 
5 | CCNC(=O)Nc1nc2cc(-c3cnc(N4CCC5(CC4)CC(CC)(C(=O)O)C5)nc3)cc(-c3ccccn3)c2s1 [Compound 219] | 1 to 16 (≈ 1.75 to 28 µM) | 0.25 to 1 (≈ 0.437 to 1.75 µM) | ≤ 0.25 | ≥ 800 | > 800 | ≥ 800 | > 800 |  |  | 
6 | CCNC(=O)Nc1nc2cc(-c3cnc(N4CCC(C)(C(=O)O)CC4)nc3OC)cc(-c3ccccn3)c2s1 [Compound 220] | 1 to 16 (≈ 1.83 to 29.2 µM) | ≤ 0.25 | ≤ 0.25 |  |  | 50 (≈ 91.3 µM) | 12.5 to 400 (≈ 22.8 to 730 µM) | 400 (≈ 730 µM) | 400 to 800 (≈ 730 to 1460 µM) | 
7 | CCNC(=O)Nc1nc2cc(-c3cnc(N4CCC(CC)(C(=O)O)CC4)s3)cc(-c3ccccn3)c2s1 [Compound 221, 4-Ethyl-1-[5-[2-(ethylcarbamoylamino)-7-(2-pyridyl)-1,3-benzothiazol-5-yl]thiazol-2-yl]piperidine-4-carboxylic acid] | 1 to 16 (≈ 1.86 to 29.8 µM) | ≤ 0.25 | ≤ 0.25 | ≥ 800 | > 800 | ≥ 800 | > 800 |  |  | 
8 | CCNC(=O)Nc1nc2cc(-c3cnc(NC4CCC(C)(C(=O)O)CC4)nc3)cc(-c3ccccn3)c2s1 (stereo not drawn) [Compound 222] | 0.25 to 1 (≈ 0.47 to 1.88 µM) | ≤ 0.25 | ≤ 0.25 | ≥ 800 | > 800 | ≥ 800 | > 800 |  |  | 
9 | CCNC(=O)Nc1nc2cc(-c3cnc(N4CCC(C)(C(=O)O)CC4)nc3)cc(-n3cccn3)n2n1 [Compound 227, 1-(5-{2-[(ethylcarbamoyl)amino]-5-(1H-pyrazol-1-yl)[1,2,4]triazolo[1,5-a]pyridin-7-yl}pyrimidin-2-yl)-4-methylpiperidine-4-carboxylic acid] | 1 to 16 (≈ 2.04 to 32.6 µM) | 1 to 16 (≈ 2.04 to 32.6 µM) | 1 to 16 (≈ 2.04 to 32.6 µM) | 400 (≈ 815 µM) | 400 to 800 (≈ 815 to 1630 µM) | 400 (≈ 815 µM) | 400 to 800 (≈ 815 to 1630 µM) |  |  | 
10 | CCNC(=O)Nc1nc2cc(-c3cnc(N4CCC(CC)(C(=O)O)CC4)nc3)cc(-c3ccccn3)c2[nH]1 [Compound 229, 4-Ethyl-1-(5-(2-(3-ethylureido)-7-(pyridin-2-yl)-1H-benzoimidazol-5-yl)pyrimidin-2-yl)piperidine-4-carboxylic acid] | 1 to 16 (≈ 1.94 to 31.1 µM) | ≤ 0.25 | ≤ 0.25 |  |  |  |  |  |  | solubility at 24 h ([5]; pH 7.4, aqueous buffer, Solubility (pH 7.4), pH 7.4 (PBS), 24 hours at room temperature, turbidimetric): 100 µg/mL (≈ 194 µM); solubility at 24 h ([5]; pH 7.4, aqueous buffer, Solubility Range, pH 7.4): 12.5 to 400 µg/mL (≈ 24.3 to 777 µM); solubility at 24 h ([5]; pH 9, aqueous buffer, Max Solubility, maximum of pH 4, 7.4 and 9, shown at pH 9): 200 µg/mL (≈ 389 µM); solubility at 24 h ([5]; pH 9, aqueous buffer, Solubility Range (maximum solubility), maximum of pH 4, 7.4 and 9, shown at pH 9): 12.5 to 400 µg/mL (≈ 24.3 to 777 µM)

More lines, main results first:

Row | MIC [1] [µg/mL] | MIC [2] [µg/mL] | MIC [3] [µg/mL] | solubility at 24 h [5, 6] [µg/mL] | solubility at 24 h [5, 7] [µg/mL] | solubility at 24 h [5, 8] [µg/mL] | solubility at 24 h [5, 9] [µg/mL] | solubility at 24 h [5, 10] [µg/mL] | solubility at 24 h [5, 11] [µg/mL] | Compound | also measured
11 | > 16 | 1 to 16 (≈ 2.13 to 34.1 µM) | 0.25 to 1 (≈ 0.534 to 2.13 µM) |  |  |  |  |  |  | CCNC(=O)Nc1nc2cc(-c3cnc(N4CCC(C)(C(=O)O)CC4)nc3)cc(CC)c2s1 [Compound 37, 1-{5-[7-Ethyl-2-(3-ethyl-ureido)-benzothiazol-5-yl]-pyrimidin-2-yl}-4-methyl-piperidine-4-carboxylic acid] | MIC [4]: ≤ 0.25 µg/mL
12 | > 16 | > 16 | 1 to 16 (≈ 1.91 to 30.6 µM) |  |  |  |  |  |  | CCNC(=O)Nc1nc2cc(-c3cnc(N4CCC(C)(C(=O)O)CC4)nc3)cc(C3CCCCC3)c2s1 [Compound 39, 1-{5-[7-Cyclohexyl-2-(3-ethyl-ureido)-benzothiazol-5-yl]-pyrimidin-2-yl}-4-methyl-piperidine-4-carboxylic acid] | MIC [4]: ≤ 0.25 µg/mL
13 | 1 to 16 (≈ 1.85 to 29.6 µM) | 0.25 to 1 (≈ 0.463 to 1.85 µM) | 0.25 to 1 (≈ 0.463 to 1.85 µM) | ≥ 800 | > 800 |  |  |  |  | CCNC(=O)Nc1nc2cc(-c3cnc(N4CCC(CC)(C(=O)O)CC4)nc3)cc(/C(CC)=N\OC)c2s1 [Compound 211, (Z)-4-Ethyl-1-(5-(2-(3-ethylureido)-7-(1-(methoxyimino)propyl)benzo[d]thiazol-5-yl)pyrimidin-2-yl)piperidine-4-carboxylic acid] | Solubility (pH 7.4) ([5]; pH 7.4): ≧800 μg/mL
14 | 0.25 to 1 (≈ 0.478 to 1.91 µM) | 0.25 to 1 (≈ 0.478 to 1.91 µM) | 0.25 to 1 (≈ 0.478 to 1.91 µM) |  |  | 400 (≈ 765 µM) | 400 to 800 (≈ 765 to 1530 µM) | ≥ 800 | > 800 | CCNC(=O)Nc1nc2cc(-c3cnc(N4CCC(C)(C(=O)O)CC4)nc3)cc(-c3noc(C)n3)c2s1 [Compound 213, 1-[5-[2-(Ethylcarbamoylamino)-7-(5-methyl-1,2,4-oxadiazol-3-yl)-1,3-benzothiazol-5-yl]pyrimidin-2-yl]-4-methyl-piperidine-4-carboxylic acid] | 
15 | 1 to 16 (≈ 1.93 to 30.8 µM) | 0.25 to 1 (≈ 0.481 to 1.93 µM) | ≤ 0.25 |  |  | 400 (≈ 770 µM) | 400 to 800 (≈ 770 to 1540 µM) | ≥ 800 | > 800 | CCNC(=O)Nc1nc2cc(-c3cnc(N4CCC(C)(C(=O)O)CC4)nc3)cc(Br)c2s1 [Compound 215] | 
16 |  |  |  |  |  |  |  | 400 (≈ 741 µM) | 400 to 800 (≈ 741 to 1480 µM) | CCNC(=O)Nc1nc2cc(-c3cnc(N4CCC(CC)(C(=O)O)CC4)nc3)cc(/C(CC)=N\OC)c2s1 [Compound 223, (E/Z)-4-ethyl-1-(5-(2-(3-ethylureido)-7-(1-(methoxyimino)propyl)benzo[d]thiazol-5-yl)pyrimidin-2-yl)piperidine-4-carboxylic acid] | Antibacterial Activity (MIC) H. influenzae (ATCC 49247) [1]: C (“C” activity >1.0 μg/mL-16 μg/mL); Solubility (pH 7.4) ([5]; pH 7.4): 100 μg/mL; Antibacterial Activity (MIC) S. pyogenes (ATCC 51339) ([2]; Gram positive strain): A (“A” activity ≦0.25 μg/mL); Antibacterial Activity (MIC) S. aureus (ATCC 29213) ([3]; Gram positive strain): A (“A” activity ≦0.25 μg/mL)
17 | 1 to 16 (≈ 1.85 to 29.6 µM) | ≤ 0.25 | ≤ 0.25 | ≥ 800 | > 800 | ≥ 800 | > 800 |  |  | CCNC(=O)Nc1nc2cc(-c3cnc(N4CCC(CC)(C(=O)O)CC4)nc3)cc(/C(CC)=N/OC)c2s1 [Compound 224, 4-ethyl-1-[5-[2-(ethylcarbamoylamino)-7-[(E)-C-ethyl-N-methoxy-carbonimidoyl]-1,3-benzothiazol-5-yl]pyrimidin-2-yl]piperidine-4-carboxylic acid] | 
18 | 0.25 to 1 (≈ 0.489 to 1.95 µM) | ≤ 0.25 | ≤ 0.25 | ≥ 800 | > 800 | ≥ 800 | > 800 |  |  | CCNC(=O)Nc1nc2cc(-c3cnc(N4CCC(CC)(C(=O)O)CC4)nc3)cc(/C=N\OC)c2s1 [Compound 225, 4-Ethyl-1-[5-[2-(ethylcarbamoylamino)-7-[(Z)-methoxyiminomethyl]-1,3-benzothiazol-5-yl]pyrimidin-2-yl]piperidine-4-carboxylic acid] | 
19 | 0.25 to 1 (≈ 0.457 to 1.83 µM) | ≤ 0.25 | ≤ 0.25 | ≥ 800 | > 800 | ≥ 800 | > 800 |  |  | CCNC(=O)Nc1nc2cc(-c3cnc(N4CCC(CC)(C(=O)O)CC4)nc3)cc(-c3ncc(C)cn3)c2s1 [Compound 226] | 
20 | 1 to 16 (≈ 1.88 to 30 µM) | ≤ 0.25 | ≤ 0.25 | 200 (≈ 375 µM) | 12.5 to 400 (≈ 23.5 to 751 µM) | 200 (≈ 375 µM) | 12.5 to 400 (≈ 23.5 to 751 µM) |  |  | CCNC(=O)Nc1nc2cc(-c3cnc(N4CCC(CC)(C(=O)O)CC4)nc3)cc(-c3ncccn3)c2s1 [Compound 228] | 

From patent publication US9181234B2, “Antibacterial compounds” (priority 2010, dated 2015)
